Values quoted from earlier work in US20040197891A1, “Removal of plasmin(ogen) from protein solutions” (priority 2001, published 2004).
Where two headings read alike, the source gives them in different places.

Legend:
[1] = test system: fibrinolytic activity of plasma
[2] = plasma that has been heparinized oral blood

Structure (SMILES) | antifibrinolytic activity compared with EACA (plasmin(ogen)) | antifibrinolytic potency (plasmin(ogen)) | inhibition (anti-fibrinolytic activity) [1, 2] [%] | inhibition (anti-fibrinolytic activity) ([1]; urokinase-stimulated plasma) [%]
N=C(N)c1ccc(N)cc1 [PAMBA, p-amino benzamidine] | about three | – | – | –
NCCCC[C@H](N)C(=O)O [lysine] | – | very low | – | –
NC[C@H]1CC[C@H](C(=O)O)CC1 [tranexamic acid] | – | – | 39 | 91
NCCCCCC(=O)O [ε-amino-caproic acid, ε-amino caproic acid] | – | – | 65 | 98
